In patent publication US20090156594A1, “HETEROCYCLIC KINASE MODULATORS” (SGX Pharmaceuticals, Inc., priority 2007, published 2009):

Legend:
c-MET = target: T1, c-MET (Homo sapiens, UniProt P08581); experiment: MET luminescence-based enzyme assay (Kinase-Glo); type: biochemical; conditions: MET kinase domain, 10 μM ATP, 60 min at 21° C.
T1 construct: expressing the kinase domain of human Met; 6x Histidine tag (TEV-cleavable) (cleaved yes); made in house; host or cells: Sf9 insect cells
Protocol: Screening data was evaluated using the equation: Z′=1-[3*(σ++σ−)/|μ+−μ−|] […] The subscript designates positive or negative controls. The Z′ score for a robust screening assay should be ≧0.50. The typical threshold=μ+−3*σ+. Any value that falls below the threshold was designated a “hit”.
MET Luminescence-Based Enzyme Assay
MET kinase (see below), Kinase-Glom (Promega Cat#V6712).
(diluted 50 μl into total of 10 ml miliQH2O daily=50 μM ATP working stock); 1% BSA (1 g BSA in 100 ml 0.1M HEPES, pH 7.5, stored at −20° C.), 100 mM MgCl2; 200 μM Staurosporine, 2× Kinase-Glo™ reagent (made fresh or stored at −20° C.).
Standard Assay Setup for 384-well format (20 μl kinase reaction, 40 μl detection reaction): 10 mM MgCl2; 0.3 mg/mil poly Glu-Tyr; 0.1% BSA; 1 μl test compound (in DMSO); 0.4 μg/ml MET kinase; 10 μM ATP; 100 mM HEPES buffer. Positive controls contained DMSO with no test compound. Negative controls contained […] staurosporine. The kinase reactions were initiated at time t=0 by the addition of ATP. Kinase reactions were incubated at 21° C. for 60 min, then 20 μl of Kinase-Glo™ reagent were added to each well to quench the kinase reaction and initiate the luminescence reaction. After a 20 min incubation at 21° C., the luminescence was detected in a plate-reading luminometer.
The cell pellets produced from half of a 12 L Sf9 insect cell culture expressing the kinase domain of human Met were resuspended in a buffer containing 50 mM Tris-HCl pH 7.7 and 250 mM NaCl, in a volume of approximately 40 ml per 1 L of original culture. […] The suspension was stirred for 1 hour at 4° C. Debris was removed by centrifugation for 30 minutes at 39,800×g at 4° C. […] The sample was then poured into a drip column at 4° C. and washed with 10 column volumes of 50 mM Tris-HCl pH 7.8, 500 mM NaCl, 10% Glycerol, […], and 10 mM Methionine. The protein was eluted using a step gradient with two column volumes each of the same buffer containing 50 mM, 200 mM, and 500 mM Imidazole, sequentially. […] The step gradient was run with 15% and then 80% of the B-side (A-side=50 mM Tris-HCl pH 7.8, 500 mM NaCl, 10% Glycerol, 10 mM Imidazole, and 10 mM Methionine; B-side=50 mM Tris-HCl pH 7.8, […], 10% Glycerol, 500 mM Imidazole, and 10 mM Methionine) for 4 column volumes each.

GTL16 cells = experiment: 96-well XTT cell survival assay (GTL16 cells); type: cell-based; conditions: Homo sapiens, GTL 16, 72 hours
Protocol: GTL16 cells were maintained in DMEM Medium supplemented with 10% fetal bovine serum (FBS) 2 mM L-Glutamine and 100 units penicillin/100 μg streptomycin, at 37° C. in 5% CO2.
Compounds were Tested in the Following Assays in Duplicate.
96-well XTT assay (GTL16 cells): One day prior to assay the growth media was aspirated off and assay media was added to cells. On the day of the assay, the cells were grown in assay media containing various concentrations of compounds (duplicates) on a 96-well flat bottom plate for 72 hours at 37° C. in 5% CO2. The starting cell number was 5000 cells per well and volume was 120 μl. At the end of the 72-hour incubation, 40 μl of XTT labeling mixture (50:1 solution of sodium 3′-[1-(phenylaminocarbonyl)-3,4-tetrazolium]-bis(4-methoxy-6-nitro) benzene sulfonic acid hydrate and Electron-coupling reagent: PMS (N-methyl dibenzopyrazine methyl sulfate) were added to each well of the plate. After an additional 5 hours of incubation at 37° C., the absorbance reading at 450 nm with a background correction of 650 nm was measured with a spectrophotometer.

T1 sequence (P08581 1078-1345 limits assumed): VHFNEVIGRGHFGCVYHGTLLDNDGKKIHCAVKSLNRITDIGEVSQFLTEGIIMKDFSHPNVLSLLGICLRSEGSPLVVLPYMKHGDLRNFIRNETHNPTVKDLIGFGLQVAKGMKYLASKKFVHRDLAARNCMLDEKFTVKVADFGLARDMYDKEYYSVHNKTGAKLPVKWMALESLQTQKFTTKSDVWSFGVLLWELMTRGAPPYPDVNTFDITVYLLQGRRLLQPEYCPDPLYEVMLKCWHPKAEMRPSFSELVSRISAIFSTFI

| Structure (SMILES) | IC50 (c-MET) | IC50 (GTL16 cells) |
| --- | --- | --- |
| c1ccc(-c2cn3c(Cc4ccc5ncccc5c4)nnc3s2)cc1 [6-(6-Phenyl-thiazolo[2,3-c][1,2,4]triazol-3-ylmethyl)-quinoline] | 1000 to 10000 nM | – |
| Cc1nn2c(Sc3ccc4ncccc4c3)nnc2s1 | 100 to 1000 nM | – |
| Cn1cc(-c2cnc3ccc(Cc4nnc5sc(C(N)Cc6cncn6C)nn45)cc3c2)cn1 (stereo not shown) | 100 to 1000 nM | – |
| Cc1nn2c(Cc3c(F)cc4ncc(Br)cc4c3F)nnc2s1 | 100 to 1000 nM | 100 to 1000 nM |
| CS(=O)(=O)c1cccc(-c2cnc3nnc(Cc4ccc5ncccc5c4)n3c2)c1 | > 10000 nM | – |
| Fc1cc2ncccc2cc1Cc1nnc2sc(-c3ncc[nH]3)nn12 | 100 to 1000 nM | 1000 to 10000 nM |
| C[C@H](N)c1nn2c(Cc3ccc4ncc(-c5cnn(C)c5)cc4c3)nnc2s1 | 100 to 1000 nM | – |
| Cn1cc(-c2cnc3ccc(Cc4nnc5sc([C@@H](N)CC6CCCCC6)nn45)cc3c2)cn1 | 100 to 1000 nM | – |
| Cn1cc(-c2cnc3ccc(Cc4nnc5sc([C@@H]6CCCN6)nn45)cc3c2)cn1 | 100 to 1000 nM | – |
| c1ccc(-c2cn3c(Sc4ccc5ncccc5c4)nnc3s2)cc1 | 100 to 1000 nM | 1000 to 10000 nM |
| Cn1cc(-c2cnc3ccc(Cc4nnc5sc(-c6cccnc6)nn45)cc3c2)cn1 [drawing 217] | < 100 nM | – |
| Cn1cc(-c2cnc3ccc(Cc4nnc5sc(C6CCC6)nn45)cc3c2)cn1 | < 100 nM | ≤ 100 nM |
| CNCc1nn2c(Cc3ccc4ncc(-c5cnn(C)c5)cc4c3)nnc2s1 | < 100 nM | ≤ 100 nM |
| Cc1nn2c(Cc3cc4cccnc4cc3F)nnc2s1 | 100 to 1000 nM | 100 to 1000 nM |
| CC(C)NCc1nn2c(Cc3ccc4ncc(-c5cnn(C)c5)cc4c3)nnc2s1 | < 100 nM | ≤ 100 nM |
| CN(C)Cc1nn2c(Cc3ccc4ncc(-c5cnn(C)c5)cc4c3)nnc2s1 | < 100 nM | ≤ 100 nM |
| Fc1cc2ncccc2cc1Cc1nnc2sc(C(F)(F)F)nn12 | 1000 to 10000 nM | – |

| Structure (SMILES) | IC50 (c-MET) | IC50 (GTL16 cells) |
| --- | --- | --- |
| Cn1cc(-c2cnc3ccc(Cc4nnc5nccnn45)cc3c2)cn1 [3-(1-Methyl-1H-pyrazol-4-yl)-6-[1,2,4]triazolo[4,3-b][1,2,4]triazin-3-ylmethyl-quinoline] | < 100 nM | ≤ 100 nM |
| Brc1cnc2ccc(Cc3nnc4sc(CN5CCCC5)nn34)cc2c1 | 100 to 1000 nM | – |
| Cc1nn2c(Cc3ccc4ncc(-c5cnn(C)c5)cc4c3F)nnc2s1 | < 100 nM | ≤ 100 nM |
| CCNCc1nn2c(Cc3ccc4ncc(-c5cnn(C)c5)cc4c3)nnc2s1 | < 100 nM | 100 to 1000 nM |
| Cn1cc(-c2cnc3ccc(Cc4nnc5sc(-c6cccnc6)nn45)cc3c2)cn1 [drawing 184] | – | ≤ 100 nM |
| Cn1cc(-c2cnc3ccc(Cc4nnc5sc(C6CC6)nn45)cc3c2)cn1 | < 100 nM | ≤ 100 nM |
| NCc1ccc(-c2cnc3nnc(Cc4ccc5ncccc5c4)n3c2)cc1 | > 10000 nM | – |
| CCc1nn2c(Sc3ccc4ncc(-c5cnn(C)c5)cc4c3)nnc2s1 | < 100 nM | 100 to 1000 nM |
| CN(C)Cc1nn2c(Cc3c(F)cc4ncc(Br)cc4c3F)nnc2s1 | 1000 to 10000 nM | – |
| OCc1nn2c(Cc3ccc4ncc(Br)cc4c3)nnc2s1 | > 10000 nM | – |
| Cn1cc(-c2cnc3ccc(Cc4nnc5sc(CNCCO)nn45)cc3c2)cn1 | < 100 nM | 100 to 1000 nM |
| COCCc1nn2c(Sc3ccc4ncc(-c5cnn(C)c5)cc4c3)nnc2s1 | < 100 nM | ≤ 100 nM |
| Cc1nn2c(Cc3ccc4ncc(-c5cnn(C)c5)cc4c3)nnc2s1 | < 100 nM | ≤ 100 nM |
| CN[C@H](C)c1nn2c(Cc3ccc4ncc(-c5cnn(C)c5)cc4c3)nnc2s1 | 100 to 1000 nM | 100 to 1000 nM |
| C[C@@H](O)[C@@H](N)c1nn2c(Cc3ccc4ncc(-c5cnn(C)c5)cc4c3)nnc2s1 | 1000 to 10000 nM | – |
| Cn1cc(-c2nn3c(Cc4ccc5ncccc5c4)nnc3s2)cn1 [6-[6-(1-Methyl-1H-pyrazol-4-yl)-[1,2,4]triazolo[3,4-b][1,3,4]thiadiazol-3-ylmethyl]-quinoline] | – | 100 to 1000 nM |
| Cn1cc(-c2cnc3ccc(Cc4nnc5sc(CNCCN6CCOCC6)nn45)cc3c2)cn1 | < 100 nM | 100 to 1000 nM |

The next lines start with results.

| IC50 (c-MET) | Structure (SMILES) | IC50 (GTL16 cells) |
| --- | --- | --- |
| < 100 nM | Cn1cc(-c2nn3c(Cc4ccc5ncccc5c4)cnc3s2)cn1 [6-[2-(1-methyl-1H-pyrazol-4-yl)-imidazo[2,1-b][1,3,4]thiadiazol-5-ylmethyl]-quinoline] | 100 to 1000 nM |
| < 100 nM | C[C@@H](N)c1nn2c(Cc3ccc4ncc(-c5cnn(C)c5)cc4c3)nnc2s1 | 100 to 1000 nM |
| < 100 nM | Cc1nn2c(Cc3c(F)cc4ncc(-c5cnn(C)c5)cc4c3F)nnc2s1 | ≤ 100 nM |
| < 100 nM | Cn1cc(-c2nn3c(Cc4cc5cccnc5cc4F)nnc3s2)cn1 | ≤ 100 nM |
| < 100 nM | Cn1cc(-c2cnc3ccc(Cc4nnc5sc(CNCC6CC6)nn45)cc3c2)cn1 | ≤ 100 nM |
| < 100 nM | c1cnc2ccc(Cc3nnc4sc(NC5CC5)nn34)cc2c1 [cyclopropyl-(3-quinolin-6-ylmethyl-[1,2,4]triazolo[3,4-b][1,3,4]thiadiazol-6-yl)-amine] | ≤ 100 nM |
| < 100 nM | Cn1cc(-c2cnc3ccc(Cc4nnc5sc([C@@H](N)CC6CC6)nn45)cc3c2)cn1 | – |
| < 100 nM | Cn1cc(-c2cnc3ccc(Cc4nnc5sc(CNC6CC6)nn45)cc3c2)cn1 | ≤ 100 nM |
| < 100 nM | c1ccc(-c2nn3c(Cc4ccc5ncccc5c4)nnc3s2)cc1 | 1000 to 10000 nM |
| < 100 nM | COCc1nn2c(Cc3ccc4ncc(-c5cnn(C)c5)cc4c3)nnc2s1 | ≤ 100 nM |
| < 100 nM | Cn1cc(-c2nn3c(Sc4ccc5ncccc5c4)nnc3s2)cn1 [6-[6-(1-Methyl-1H-pyrazol-4-yl)-[1,2,4]triazolo[3,4-b][1,3,4]thiadiazol-3-ylsulfanyl]-quinoline] | 100 to 1000 nM |
| < 100 nM | Cn1cc(-c2cnc3ccc(Cc4nnc5sc(CNCCF)nn45)cc3c2)cn1 | ≤ 100 nM |
| < 100 nM | Cn1cc(-c2cnc3ccc(Cc4nnc5sc(CNCC(F)(F)F)nn45)cc3c2)cn1 | ≤ 100 nM |
| < 100 nM | Cn1cc(-c2cnc3ccc(Cc4nnc5sc([C@H](N)CC6CCCCC6)nn45)cc3c2)cn1 | 100 to 1000 nM |
| < 100 nM | Cc1nn2c(Sc3ccc4ncc(-c5cnn(C)c5)cc4c3)nnc2s1 | ≤ 100 nM |
| < 100 nM | CCc1nn2c(Cc3ccc4ncc(-c5cnn(C)c5)cc4c3)nnc2s1 | ≤ 100 nM |
| < 100 nM | Cn1cc(-c2nn3c(Cc4c(F)cc5ncccc5c4F)nnc3s2)cn1 | ≤ 100 nM |
